Measured values published in patent publication US5935951A, “1-acyl-4-aliphatylaminopiperidine compounds” (Novartis Finance Corporation, priority 1994, dated 1999).
pIC50: −log10 of the molar value. Where a name gives a salt, the structure may show the parent alone.

molecular target: T1, 3H-substance P binding to the bovine retina (Bos taurus, UniProt F1MIX5); assay: radioreceptor assay: binding of 3H-substance P to the bovine retina (according to H. Bittiger); settings: in vitro, read-out: in vitro values: inhibition of the binding of 3H-substance P to the bovine retina
T1 construct: from tissue; host or cells: bovine retina
T1 sequence (F1MIX5 1-407): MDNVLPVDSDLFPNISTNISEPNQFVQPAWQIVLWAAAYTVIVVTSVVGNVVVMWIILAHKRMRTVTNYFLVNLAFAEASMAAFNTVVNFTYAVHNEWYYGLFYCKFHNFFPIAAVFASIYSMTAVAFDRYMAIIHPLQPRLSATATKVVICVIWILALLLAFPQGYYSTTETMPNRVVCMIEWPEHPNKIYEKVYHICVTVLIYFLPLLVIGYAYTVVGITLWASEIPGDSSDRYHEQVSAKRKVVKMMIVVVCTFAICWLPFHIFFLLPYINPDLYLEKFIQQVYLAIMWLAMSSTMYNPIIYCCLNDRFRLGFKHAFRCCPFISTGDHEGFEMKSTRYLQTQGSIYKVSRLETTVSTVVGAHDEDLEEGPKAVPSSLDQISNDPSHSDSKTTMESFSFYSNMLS

Row | Compound | pIC50
1 | CN(C)CCCOC(=O)N[C@H]1CCN(C(=O)c2cc(C(F)(F)F)cc(C(F)(F)F)c2)[C@H](Cc2ccccc2)C1 [16 (2nd compound), 3-dimethylaminopropyl (2R,4S)-N-[2-benzyl-1-(3,5-bistrifluoromethylbenzoyl)piperidin-4-yl]carbamate] | 7.96
2 | NC(=O)CN[C@H]1CCN(C(=O)c2cc(C(F)(F)F)cc(C(F)(F)F)c2)[C@H](Cc2ccccc2)C1 [Example 2, (2R,4S)-2-[2-Benzyl-1-(3,5-bistrifluoromethylbenzoyl)piperidin-4-ylamino]-acetamide hydrochloride] | 8.00
3 | O=C(NC1CCCCC1)N[C@H]1CCN(C(=O)c2cc(C(F)(F)F)cc(C(F)(F)F)c2)[C@H](Cc2ccccc2)C1 [Example 45 (f), (2R,4S)-1-[2-benzyl-1-(3,5-bistrifluoromethylbenzoyl)piperidin-4-yl]-3-cyclohexylurea] | 8.05

Further lines, results first:

Row | pIC50 | Compound
4 | 8.12 | CCNC(=O)N[C@H]1CCN(C(=O)c2cc(C(F)(F)F)cc(C(F)(F)F)c2)[C@H](Cc2ccc(Cl)cc2)C1 [45 (c), (2R,4S)-1-[1-(3,5-bistrifluoromethylbenzoyl)-2-(4-chlorobenzyl)piperdin-4-yl]-3-ethylurea]
5 | 7.96 | CCCC(=O)N[C@H]1CCN(C(=O)c2cc(C(F)(F)F)cc(C(F)(F)F)c2)[C@H](Cc2ccc(Cl)cc2)C1 [Example 28, (2R,4S)-N-[1-(3,5-Bistrifluoromethylbenzoyl)-2-(4-chlorobenzyl)piperidin-4-yl]-butyramide]
